The results in this text go back to ChEMBL document CHEMBL3407463 (Eur J Med Chem, 2014).

Structures are written as SMILES. The source made the active and inactive calls. No cut-off for these calls is given here. A value given as a limit tells only on which side of the number the result lay.

Test [1] concerns the target T1, Aromatase (Homo sapiens, UniProt P11511).
T1 sequence (P11511 whole entry): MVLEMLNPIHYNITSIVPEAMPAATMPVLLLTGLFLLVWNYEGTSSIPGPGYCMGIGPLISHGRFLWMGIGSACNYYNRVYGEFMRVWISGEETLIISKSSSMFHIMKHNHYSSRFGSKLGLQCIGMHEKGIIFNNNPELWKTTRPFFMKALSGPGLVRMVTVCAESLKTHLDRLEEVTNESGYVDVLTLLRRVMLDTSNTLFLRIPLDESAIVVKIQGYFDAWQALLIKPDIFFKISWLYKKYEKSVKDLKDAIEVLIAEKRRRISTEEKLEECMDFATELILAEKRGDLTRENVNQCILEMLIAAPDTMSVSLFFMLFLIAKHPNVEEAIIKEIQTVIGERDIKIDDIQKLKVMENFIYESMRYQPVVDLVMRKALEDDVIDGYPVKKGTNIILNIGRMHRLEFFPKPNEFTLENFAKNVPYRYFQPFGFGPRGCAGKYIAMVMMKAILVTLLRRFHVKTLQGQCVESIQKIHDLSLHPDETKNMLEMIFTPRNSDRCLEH
Kind of test: Inhibition of human placental microsome aromatase using [1beta-3H] androstenedione as substrate after 15 mins by liquid scintillation counting.

Test [2] relates to MCF7. Kind of test: Cytotoxicity against human placental microsome aromatase expressing human MCF7 cells assessed as reduction in cell viability up to 5 uM after 3 to 6 days by MTT assay in presence of estradiol. Format: functional, cell-based.
The target of test [3] is T1, Aromatase. Kind of test: Inhibition of human placental microsome aromatase using [1beta-3H] androstenedione as substrate at 2 uM after 15 mins by liquid scintillation counting. The following applies: 0.25 h.
The test system of test [4] is MCF7. Briefly: Cytotoxicity against human placental microsome aromatase expressing human MCF7 cells assessed as reduction in cell viability at 1 to 2.5 uM after 2 days by MTT assay in presence of testosterone. The format is functional. Background: Formazan colour is commonly taken as a measure of viable cells.
Test [5] has as its system MCF7. Briefly: Cytotoxicity against human placental microsome aromatase expressing human MCF7 cells after 2 to 6 days by MTT assay in presence of testosterone. The format is functional, cell-based.
For test [6], the target named is T1, Aromatase. Briefly: Inhibition of human […] aromatase expressed in human MCF7 cells using [1beta-3H] androstenedione as substrate after 1 hr by liquid scintillation counting. Format: cell-based.
For test [7], the target named is T1, Aromatase. Kind of test: Inhibition of human […] aromatase expressed in human MCF7 cells using [1beta-3H] androstenedione as substrate at 10 uM after 1 hr by liquid scintillation counting. Format: cell-based.
In test [8] the test system is MCF7. Kind of test: Cytotoxicity against human placental microsome aromatase expressing human MCF7 cells at 0.01 to 15 uM by MTT assay in presence of testosterone. Format: functional, cell-based. The following applies: TDE = time-dependent effect.
The test system of test [9] is MCF7. Briefly: Cytotoxicity against human placental microsome aromatase expressing human MCF7 cells at 5 to 15 uM after 2 to 3 days by LDH assay in presence of testosterone. The format is functional, cell-based.
Test [10] has as its system MCF7. Briefly: Cytotoxicity against human placental microsome aromatase expressing human MCF7 cells assessed as reduction in cell viability up to 15 uM after 3 to 6 days by MTT assay in presence of estradiol. The format is functional, cell-based.
In test [11] the test system is MCF7. Kind of test: Cytotoxicity against human placental microsome aromatase expressing human MCF7 cells at 1 to 15 uM by MTT assay in presence of testosterone. The format is functional, cell-based. Conditions: TDE = time-dependent effect.
Test [12] has as its system MCF7. Kind of test: Cytotoxicity against human placental microsome aromatase expressing human MCF7 cells assessed as reduction in cell viability at 5 to 15 uM after 2 days by MTT assay in presence of testosterone. Format: functional, cell-based.
Test [13] concerns MCF7. Briefly: Cytotoxicity against human placental microsome aromatase expressing human MCF7 cells at 1 to 15 uM after 2 to 6 days by LDH assay in presence of testosterone. The format is functional, cell-based.
The subject of test [14] is MCF7. Briefly: Cytotoxicity against human placental microsome aromatase expressing human MCF7 cells assessed as reduction in cell viability up to 15 uM after 3 to 6 days by MTT assay in presence of testosterone. Format: functional, cell-based.

Usually IC50 stands for the concentration that gives 50% inhibition. A word on the inhibition: it is how much of the control response was suppressed. The low end stands for a weak effect, the high end for a strong effect. Regarding `C=C1C[C@@H]2[C@H](CC[C@]3(C)C(=O)CC[C@@H]23)[C@]2(C)C1=CC(=O)[C@@H]1O[C@@H]12`, the values for the IC50 against Aromatase [1] and on Aromatase [6] were 0.81 µM and 1.18 µM, respectively. Further, the outcome in the test on MCF7 [2] and in the test on MCF7 [9] was Active. Further, at Aromatase [3], at 2 µM the inhibition was 86.8%. Also, the figures for the Activity in the test with MCF7 [4], in the test on MCF7 [5] and in the test with MCF7 [8] were under 25%, “Dose-dependent effect” and “tde”, respectively. Besides, testing at 10 µM at Aromatase [7] gave an inhibition of 88.6%.

On to `C[C@]12C=CC(=O)C=C1[C@@]1(CO1)C[C@@H]1[C@@H]2CC[C@]2(C)C(=O)CC[C@@H]12`, for which the IC50 at Aromatase [1] stood at 0.62 µM; against Aromatase [6], 0.73 µM. The result with MCF7 [10] and with MCF7 [4] was Active. Besides, the results for the Activity result with MCF7 [11] and in the test on MCF7 [5] were “tde” and “Dose-dependent effect”, respectively. The inhibition at 2 µM against Aromatase [3] came out at 91.7%. In addition, the outcome in the test with MCF7 [12] and in the test on MCF7 [13] was inactive. The molecule further gave an inhibition at 10 µM on Aromatase [7] of 95.3%.

With `C[C@]12C=CC(=O)C=C1C(CO)=C[C@@H]1[C@@H]2CC[C@]2(C)C(=O)CC[C@@H]12`, the 50% inhibitory concentration (IC50) on Aromatase [1] came to 0.67 µM; at Aromatase [6], 0.98 µM. In addition, the outcome in the test on MCF7 [10] and in the test with MCF7 [4] was Active. Also, the values for the Activity entry with MCF7 [11] and with MCF7 [5] were “tde” and “Dose-dependent effect”, respectively. The molecule further showed an inhibition at 2 µM against Aromatase [3] of 81%. The outcome in the test with MCF7 [12] and in the test with MCF7 [13] was inactive. This molecule also came in with an inhibition at 10 µM against Aromatase [7] of 84%.

Regarding `C=C1C[C@H]2[C@@H]3CC[C@H](O)[C@@]3(C)CC[C@@H]2[C@@]2(C)C=CC(=O)C=C12`, the result with MCF7 [10], in the test with MCF7 [4] and with MCF7 [14] was Active. Also, the results for the Activity result in the test with MCF7 [11] and in the test on MCF7 [5] were “tde” and “Dose-dependent effect”, respectively. The result in the test with MCF7 [12] and in the test on MCF7 [13] was inactive.
